{"source": "patent US20070142367A1", "about": "“METHOD AND MEDICINE FOR TREATING GASTROINTESTINAL DISORDER INCLUDING FECAL INCONTINENCE” (priority 2003, published 2007)", "key": {"human patient": {"test_system": "human patient", "assay": "Side effects noted in patients under daily oral treatment (case examples)", "conditions": "Example 3: 75 mg imipramine pamoate daily without stool softener", "excerpt": "(§1) The patient takes TYLOX, oxycontin, neurotin, aspirin, and anti-coagulants."}, "[1]": {"test_system": "human having a gastrointestinal disorder that includes fecal incontinence", "assay": "Treatment of ambulatory patients having fecal incontinence with daily oral medicine (case examples)", "assay_type": "in vivo", "conditions": "Example 3: person, sprain lumbar spine, 75 mg imipramine pamoate daily without stool softener, after several days", "excerpt": "as §1"}}, "data": [{"compound": "CN(C)CCCN1c2ccccc2CCc2ccccc21.CN(C)CCCN1c2ccccc2CCc2ccccc21.O=C(O)c1cc2ccccc2c(Cc2c(O)c(C(=O)O)cc3ccccc23)c1O", "note": "[imipramine pamoate, 5-[3-(dimethylamino)propyl]-10,11-dihydro-5H-dibenzazepine 4,4-methlyenebis-(3-hydroxy-2-napthoate)]", "values": [{"measurement": "side effects", "setting": "human patient", "value": "develops constipation"}, {"measurement": "bladder and bowel functions as noted by patient", "setting": "[1]", "value": "full control of bladder and bowel functions"}]}]}
